Test results as given in the NIST ThermoML archive (doi:10.1016/j.jct.2005.03.016).
Numbers after ± are expanded uncertainties.

Assay: xn = mol fraction of the nth substance listed
Conditions: Liquid, Vibrating tube method, x1 = 1

Structure (SMILES): CCO [ethanol] + CC1CCCCC1
- mass density (283.15 K, 100 kPa): 798 ± 0.2 kg/m3
- mass density (283.15 K, 5000 kPa): 802 ± 0.2 kg/m3
- mass density (283.15 K, 10000 kPa): 805.9 ± 0.2 kg/m3
- mass density (283.15 K, 15000 kPa): 809.5 ± 0.3 kg/m3
- mass density (283.15 K, 20000 kPa): 813 ± 0.3 kg/m3
- mass density (283.15 K, 25000 kPa): 816.4 ± 0.4 kg/m3
- mass density (283.15 K, 30000 kPa): 819.7 ± 0.4 kg/m3
- mass density (283.15 K, 35000 kPa): 822.8 ± 0.4 kg/m3
- mass density (283.15 K, 40000 kPa): 825.9 ± 0.5 kg/m3
- mass density (283.15 K, 45000 kPa): 828.8 ± 0.5 kg/m3
- mass density (293.15 K, 100 kPa): 789.5 ± 0.2 kg/m3
- mass density (293.15 K, 5000 kPa): 793.7 ± 0.2 kg/m3
- mass density (293.15 K, 10000 kPa): 797.8 ± 0.3 kg/m3
- mass density (293.15 K, 15000 kPa): 801.6 ± 0.3 kg/m3
- mass density (293.15 K, 20000 kPa): 805.3 ± 0.3 kg/m3
- mass density (293.15 K, 25000 kPa): 808.9 ± 0.4 kg/m3
- mass density (293.15 K, 30000 kPa): 812.3 ± 0.4 kg/m3
- mass density (293.15 K, 35000 kPa): 815.6 ± 0.5 kg/m3
- mass density (293.15 K, 40000 kPa): 818.7 ± 0.5 kg/m3
- mass density (293.15 K, 45000 kPa): 821.8 ± 0.5 kg/m3
- mass density (303.15 K, 100 kPa): 780.9 ± 0.2 kg/m3
- mass density (303.15 K, 5000 kPa): 785.3 ± 0.2 kg/m3
- mass density (303.15 K, 10000 kPa): 789.6 ± 0.3 kg/m3
- mass density (303.15 K, 15000 kPa): 793.7 ± 0.3 kg/m3
- mass density (303.15 K, 20000 kPa): 797.5 ± 0.4 kg/m3
- mass density (303.15 K, 25000 kPa): 801.3 ± 0.4 kg/m3
- mass density (303.15 K, 30000 kPa): 804.8 ± 0.4 kg/m3
- mass density (303.15 K, 35000 kPa): 808.2 ± 0.5 kg/m3
- mass density (303.15 K, 40000 kPa): 811.5 ± 0.5 kg/m3
- mass density (303.15 K, 45000 kPa): 814.7 ± 0.6 kg/m3
- mass density (313.15 K, 100 kPa): 772.1 ± 0.2 kg/m3
- mass density (313.15 K, 5000 kPa): 776.8 ± 0.2 kg/m3
- mass density (313.15 K, 10000 kPa): 781.3 ± 0.3 kg/m3
- mass density (313.15 K, 15000 kPa): 785.6 ± 0.3 kg/m3
- mass density (313.15 K, 20000 kPa): 789.6 ± 0.4 kg/m3
- mass density (313.15 K, 25000 kPa): 793.5 ± 0.4 kg/m3
- mass density (313.15 K, 30000 kPa): 797.2 ± 0.5 kg/m3
- mass density (313.15 K, 35000 kPa): 800.8 ± 0.5 kg/m3
- mass density (313.15 K, 40000 kPa): 804.2 ± 0.5 kg/m3
- mass density (313.15 K, 45000 kPa): 807.6 ± 0.6 kg/m3
- mass density (323.15 K, 100 kPa): 763.3 ± 0.2 kg/m3
- mass density (323.15 K, 5000 kPa): 768.3 ± 0.2 kg/m3
- mass density (323.15 K, 10000 kPa): 773 ± 0.3 kg/m3
- mass density (323.15 K, 15000 kPa): 777.6 ± 0.3 kg/m3
- mass density (323.15 K, 20000 kPa): 781.8 ± 0.4 kg/m3
- mass density (323.15 K, 25000 kPa): 785.9 ± 0.4 kg/m3
- mass density (323.15 K, 30000 kPa): 789.7 ± 0.5 kg/m3
- mass density (323.15 K, 35000 kPa): 793.5 ± 0.5 kg/m3
- mass density (323.15 K, 40000 kPa): 797.1 ± 0.6 kg/m3
- mass density (323.15 K, 45000 kPa): 800.5 ± 0.6 kg/m3
- mass density (333.15 K, 100 kPa): 754 ± 0.2 kg/m3
- mass density (333.15 K, 5000 kPa): 759.3 ± 0.2 kg/m3
- mass density (333.15 K, 10000 kPa): 764.3 ± 0.3 kg/m3
- mass density (333.15 K, 15000 kPa): 769.1 ± 0.3 kg/m3
- mass density (333.15 K, 20000 kPa): 773.6 ± 0.4 kg/m3
- mass density (333.15 K, 25000 kPa): 777.8 ± 0.4 kg/m3
- mass density (333.15 K, 30000 kPa): 781.9 ± 0.5 kg/m3
- mass density (333.15 K, 35000 kPa): 785.8 ± 0.5 kg/m3
- mass density (333.15 K, 40000 kPa): 789.5 ± 0.6 kg/m3
- mass density (333.15 K, 45000 kPa): 793.1 ± 0.6 kg/m3
- mass density (343.15 K, 100 kPa): 744.5 ± 0.2 kg/m3
- mass density (343.15 K, 5000 kPa): 750.1 ± 0.2 kg/m3
- mass density (343.15 K, 10000 kPa): 755.5 ± 0.3 kg/m3
- mass density (343.15 K, 15000 kPa): 760.5 ± 0.3 kg/m3
- mass density (343.15 K, 20000 kPa): 765.3 ± 0.4 kg/m3
- mass density (343.15 K, 25000 kPa): 769.8 ± 0.5 kg/m3
- mass density (343.15 K, 30000 kPa): 774 ± 0.5 kg/m3
- mass density (343.15 K, 35000 kPa): 778.1 ± 0.5 kg/m3
- mass density (343.15 K, 40000 kPa): 782 ± 0.6 kg/m3
- mass density (343.15 K, 45000 kPa): 785.7 ± 0.6 kg/m3
- mass density (353.15 K, 5000 kPa): 740.6 ± 0.2 kg/m3
- mass density (353.15 K, 10000 kPa): 746.4 ± 0.3 kg/m3
- mass density (353.15 K, 15000 kPa): 751.7 ± 0.4 kg/m3
- mass density (353.15 K, 20000 kPa): 756.7 ± 0.4 kg/m3
- mass density (353.15 K, 25000 kPa): 761.5 ± 0.5 kg/m3
- mass density (353.15 K, 30000 kPa): 766 ± 0.5 kg/m3
- mass density (353.15 K, 35000 kPa): 770.2 ± 0.6 kg/m3
- mass density (353.15 K, 40000 kPa): 774.3 ± 0.6 kg/m3
- mass density (353.15 K, 45000 kPa): 778.2 ± 0.7 kg/m3
